Laboratory results: patent publication US12595253B2, “Benzamides of pyrazolylamino-pyrimidinyl derivatives, and compositions and methods thereof” (LYNK PHARMACEUTICALS CO. LTD., priority 2019, dated 2026)

Tests used:
[1] = Rat pharmacokinetic study (intravenous and oral); type: in vivo; settings: male, plasma, Sprague-Dawley rats, intravenous, 1 mg/kg, solution
Protocol: Pharmacokinetic profile of test articles in rodent were evaluated in fasted male ICR mouse and Sprague-Dawley rats. […] Typically, mice were dosed with 2 mg/kg and 10 mg/kg by intravenous injection and oral gavage, respectively. Rats were dosed with 1 mg/kg and 5 mg/kg by intravenous injection and oral gavage, respectively. Beagle dogs were dosed with 1 mg/kg and 5 mg/kg by intravenous injection and oral gavage, respectively. After dosing, blood samples were collected at each time point. For IV injection group, time points were set at 5, 15, 30 min, and then 1, 2, 4, 8 and 24 hours after dosing. For oral gavage group, timepoints were set at 15, 30 m, and then 1, 2, 4, 8, and 24 hours. Blood was collected into appropriately labeled tubes containing K2EDTA as the anticoagulant. Plasma was obtained within 1 hours of blood collection by centrifugation at 8000×g and 4° C. for 6 minutes, and then stored at −20° C. until analyzed by LCMS/MS for quantification.

JAK2V617F = target: T1, JAK2V617F (Homo sapiens, UniProt O60674, V617F); test: JAK2V617F microfluidic kinase assay (Caliper EZ Reader II, FAM labeled peptide substrate); type: biochemical; settings: JAK2V617F 2.5 nM, 1 mM ATP
T1 construct: purchased Carna Biosciences
T1 sequence (O60674 whole entry V617F): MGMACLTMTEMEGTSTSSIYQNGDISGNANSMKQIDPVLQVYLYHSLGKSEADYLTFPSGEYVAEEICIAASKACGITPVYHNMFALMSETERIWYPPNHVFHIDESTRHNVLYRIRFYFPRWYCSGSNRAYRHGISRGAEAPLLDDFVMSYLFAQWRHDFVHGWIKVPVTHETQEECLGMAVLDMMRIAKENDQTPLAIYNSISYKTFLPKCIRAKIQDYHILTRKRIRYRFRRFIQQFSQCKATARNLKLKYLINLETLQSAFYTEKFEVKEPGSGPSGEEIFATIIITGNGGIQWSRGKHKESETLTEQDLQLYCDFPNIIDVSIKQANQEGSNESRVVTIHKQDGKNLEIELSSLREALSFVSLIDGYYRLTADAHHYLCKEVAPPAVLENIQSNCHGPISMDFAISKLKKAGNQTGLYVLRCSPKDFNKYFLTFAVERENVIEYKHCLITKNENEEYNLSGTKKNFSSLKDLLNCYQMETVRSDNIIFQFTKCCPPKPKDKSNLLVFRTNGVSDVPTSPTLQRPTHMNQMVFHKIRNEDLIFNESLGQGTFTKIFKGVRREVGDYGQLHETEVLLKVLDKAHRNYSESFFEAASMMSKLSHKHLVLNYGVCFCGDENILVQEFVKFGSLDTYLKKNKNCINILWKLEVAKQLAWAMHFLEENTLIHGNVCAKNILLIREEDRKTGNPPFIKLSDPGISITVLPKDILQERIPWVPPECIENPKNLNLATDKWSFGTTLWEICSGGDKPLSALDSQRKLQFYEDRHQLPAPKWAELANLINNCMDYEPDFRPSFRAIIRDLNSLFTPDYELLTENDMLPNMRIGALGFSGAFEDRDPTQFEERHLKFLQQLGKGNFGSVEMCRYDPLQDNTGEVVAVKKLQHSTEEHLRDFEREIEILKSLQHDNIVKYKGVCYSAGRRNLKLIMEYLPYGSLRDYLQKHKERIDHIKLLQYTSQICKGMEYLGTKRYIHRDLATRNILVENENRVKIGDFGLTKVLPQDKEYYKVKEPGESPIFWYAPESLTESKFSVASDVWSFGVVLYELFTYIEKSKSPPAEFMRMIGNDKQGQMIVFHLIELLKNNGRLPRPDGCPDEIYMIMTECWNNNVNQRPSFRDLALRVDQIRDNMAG
Procedure, shortened: (§1)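 Activity measured in 50 mM HEPES, 0.01% Brij35, 10 mM MgCl2, 2 mM DTT by microfluidic separation of phosphorylated FAM peptide. Enzyme conditions set for 10% substrate conversion.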

JAK2 = target: T2, JAK2 (Homo sapiens, UniProt O60674); test: JAK2 microfluidic kinase assay (Caliper EZ Reader II, FAM labeled peptide substrate); type: biochemical
T2 construct: purchased Carna Biosciences
T2 sequence (O60674 whole entry): as the sequence (O60674 whole entry V617F) above, with F617V counted along it
Procedure, shortened: as §1

JAK1 = target: T3, JAK1 (Homo sapiens, UniProt P23458); test: JAK1 microfluidic kinase assay (Caliper EZ Reader II, FAM labeled peptide substrate); type: biochemical
T3 construct: purchased Carna Biosciences
T3 sequence (P23458 whole entry): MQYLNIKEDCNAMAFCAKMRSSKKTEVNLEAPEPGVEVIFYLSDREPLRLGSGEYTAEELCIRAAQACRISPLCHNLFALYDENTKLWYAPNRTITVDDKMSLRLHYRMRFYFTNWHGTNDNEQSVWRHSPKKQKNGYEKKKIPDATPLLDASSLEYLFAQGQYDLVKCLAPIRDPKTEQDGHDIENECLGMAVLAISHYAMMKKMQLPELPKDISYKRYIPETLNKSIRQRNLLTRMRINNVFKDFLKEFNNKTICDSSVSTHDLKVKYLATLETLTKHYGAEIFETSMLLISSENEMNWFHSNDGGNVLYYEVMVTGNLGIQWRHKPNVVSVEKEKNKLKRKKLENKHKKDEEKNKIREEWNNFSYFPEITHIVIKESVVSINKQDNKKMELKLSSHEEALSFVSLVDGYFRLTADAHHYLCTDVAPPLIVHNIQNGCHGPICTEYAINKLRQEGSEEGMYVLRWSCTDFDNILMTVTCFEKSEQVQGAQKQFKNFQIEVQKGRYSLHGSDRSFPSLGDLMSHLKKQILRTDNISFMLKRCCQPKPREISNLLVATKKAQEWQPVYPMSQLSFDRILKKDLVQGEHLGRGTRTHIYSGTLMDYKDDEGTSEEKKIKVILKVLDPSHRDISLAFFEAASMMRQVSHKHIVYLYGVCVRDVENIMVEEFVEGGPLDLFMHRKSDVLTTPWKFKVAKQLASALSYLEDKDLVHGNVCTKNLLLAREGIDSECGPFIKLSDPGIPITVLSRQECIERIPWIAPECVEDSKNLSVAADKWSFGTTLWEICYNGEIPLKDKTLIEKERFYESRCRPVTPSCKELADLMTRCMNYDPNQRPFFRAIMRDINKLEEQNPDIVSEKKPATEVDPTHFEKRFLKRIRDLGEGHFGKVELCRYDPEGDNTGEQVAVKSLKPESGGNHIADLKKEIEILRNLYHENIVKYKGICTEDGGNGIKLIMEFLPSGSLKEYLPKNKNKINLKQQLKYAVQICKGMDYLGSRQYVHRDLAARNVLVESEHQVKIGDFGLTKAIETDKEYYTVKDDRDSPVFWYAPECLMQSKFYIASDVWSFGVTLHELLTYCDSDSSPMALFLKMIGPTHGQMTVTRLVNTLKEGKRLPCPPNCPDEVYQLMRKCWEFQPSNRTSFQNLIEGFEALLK
Procedure, shortened: as §1

[2] = Liver microsomes study, Phase I stability (RLM); type: in vitro ADME, rat; settings: pH 7.4; rat liver microsomes 0.5 mg/mL, 1 μM test article; read-out: RLM Clint
Protocol: (§2) Commercially available liver microsomes (MsLM vendor: XENOTECH; RLM, DLM, MkL, HLM vendor: Corning) were used for study the Phase I stability of test articles. […] The reaction was initiated by addition of 80 μL of the NADPH regenerating system to 320 µL of each incubation mixture per time point. […] The 0-minute samples were prepared by addition of an 80 μL aliquot of each incubation mixture to 400 μL quench reagent to precipitate proteins. And then a 20 μL aliquot of the NADPH regenerating system was added. At 10, 30, and 90 minutes, the reaction will be stopped by the addition of cold acetonitrile solution containing tolbutamide and propanolol served as internal standard. The samples taken at all time points were centrifuged at 4000×g for 15 minutes. 80 μL of supernatant are taken into 96-well assay plates pre-added with 160 μL ultrapure water, and then analyzed by LC/MS/MS(Shimadzu LC30AD & API4000/API5000)). Concentrations of test articles, control compounds in the samples were determined by using LC/MS/MS) method. Plotting of the chromatograms and peak area integrations are carried out by Analyst (AB Sciex).
(§3) In the determination of the in vitro elimination constant, ke, of the control compounds, the analyte/internal standard peak area ratios will be converted to percentage remaining (% Remaining) with the following equation: […]
(§4) The slope was measured by the natural logarithm of the percentage of the residual compound and time, T½ and CLint were calculated according to the following formulas, V/M was equal to the 1/concentration of protein.

[3] = Liver microsomes study, Phase I stability (HLM); type: in vitro ADME, human; settings: pH 7.4; human liver microsomes 0.5 mg/mL, 1 μM test article; read-out: HLM Clint
Protocol: as §2, §3, §4

TYK2 = target: T4, TYK2 (Homo sapiens, UniProt P29597); test: TYK2 microfluidic kinase assay (Caliper EZ Reader II, FAM labeled peptide substrate); type: biochemical; settings: IC50 TYK2 ([…]) (1 mM ATP), TYK2 […], 1 mM ATP
T4 construct: purchased Carna Biosciences
T4 sequence (P29597 whole entry): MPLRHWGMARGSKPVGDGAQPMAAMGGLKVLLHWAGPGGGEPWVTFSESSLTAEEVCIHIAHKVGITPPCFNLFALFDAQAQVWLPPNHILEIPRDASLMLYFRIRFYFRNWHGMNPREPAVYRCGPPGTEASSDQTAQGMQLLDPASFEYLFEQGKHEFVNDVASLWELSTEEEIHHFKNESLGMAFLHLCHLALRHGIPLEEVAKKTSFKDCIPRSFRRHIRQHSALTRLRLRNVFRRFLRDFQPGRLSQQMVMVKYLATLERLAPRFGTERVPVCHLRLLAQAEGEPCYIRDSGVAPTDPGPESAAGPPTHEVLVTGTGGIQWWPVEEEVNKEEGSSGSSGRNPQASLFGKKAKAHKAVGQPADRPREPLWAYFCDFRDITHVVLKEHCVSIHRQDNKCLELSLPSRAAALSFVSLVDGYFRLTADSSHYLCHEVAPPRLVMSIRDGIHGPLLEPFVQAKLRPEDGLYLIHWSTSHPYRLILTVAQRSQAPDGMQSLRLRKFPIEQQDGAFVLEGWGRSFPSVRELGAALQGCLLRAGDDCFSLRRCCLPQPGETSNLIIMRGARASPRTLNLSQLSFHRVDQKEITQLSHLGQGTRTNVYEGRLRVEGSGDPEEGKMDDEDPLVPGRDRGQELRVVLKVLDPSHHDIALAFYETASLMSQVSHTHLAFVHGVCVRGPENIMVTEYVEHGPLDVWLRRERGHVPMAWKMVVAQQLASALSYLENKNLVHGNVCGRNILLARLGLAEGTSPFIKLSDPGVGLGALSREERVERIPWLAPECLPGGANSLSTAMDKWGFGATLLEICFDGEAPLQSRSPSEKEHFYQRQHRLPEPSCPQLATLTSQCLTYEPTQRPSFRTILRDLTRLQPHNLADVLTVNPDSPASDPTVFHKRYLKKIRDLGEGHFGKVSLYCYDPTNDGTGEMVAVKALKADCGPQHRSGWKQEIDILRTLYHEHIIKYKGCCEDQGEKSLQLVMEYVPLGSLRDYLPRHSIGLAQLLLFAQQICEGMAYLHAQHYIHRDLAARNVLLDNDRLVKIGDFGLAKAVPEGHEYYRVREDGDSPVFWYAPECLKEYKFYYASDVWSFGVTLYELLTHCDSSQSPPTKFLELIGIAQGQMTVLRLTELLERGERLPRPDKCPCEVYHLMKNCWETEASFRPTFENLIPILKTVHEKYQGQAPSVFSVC
Procedure, shortened: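 First, serially diluted compounds (top 5 μM, 3-fold steps, 1% DMSO final) sit with enzyme 10 min at ambient temperature. Then the kinase reaction runs in HEPES buffer with 10 mM MgCl2 for 120, 20, 30 or 10 min (JAK1, JAK2, JAK2V617F, TYK2). Finally 50 mM EDTA quenches it.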

[4] = IC50 JAK2 ([…]) (1 mM ATP), 1 mM ATP
[5] = IC50 JAK2 ([…]) (Km ATP), Km ATP
[6] = IC50 JAK1 (5 nM) (1 m MATP), JAK1 5 nM, 1 mM ATP

| SMILES | AUC [1] | Vd [1] | clearance [1] | half-life [1] | IC50 (JAK2V617F) | IC50 (JAK2; [4]) | IC50 (JAK2; [5]) | IC50 (JAK1; [6]) | microsomal CLint at 1 μM [2] | microsomal CLint at 1 μM [3] | IC50 (TYK2) | IC50 (JAK1; IC50 JAK1 (10 nM) (Km ATP), JAK1 10 nM, Km ATP) |
| --- | --- | --- | --- | --- | --- | --- | --- | --- | --- | --- | --- | --- |
| Cc1cnc(Nc2cnn(CC(F)(F)F)c2)nc1-c1ccc(C(=O)NCC#N)cc1 [Example 28, N-(Cyanomethyl)-4-(5-methyl-2-((1-(2,2,2-trifluoroethyl)-1H-pyrazol-4-yl)amino)pyrimidin-4-yl)benzamide] | 732 ng·h/mL | 0.8 L/kg | 22.9 mL/min/kg | 24 min | 193 nM | 82.2 nM | 2.73 nM |  |  |  |  |  |
| Cc1cnc(Nc2cnn(C)c2)nc1-c1ccc(C(=O)N[C@@H](C)C#N)cc1 [Example 18, (S)—N-(1-Cyanoethyl)-4-(5-methyl-2-((1-methyl-1H-pyrazol-4-yl)amino)pyrimidin-4-yl)benzamide] | 504 ng·h/mL | 1.4 L/kg | 33.1 mL/min/kg | 28.8 min | 53 nM |  | 0.85 nM | 10 nM | 23.3 µL/min/mg | 11 µL/min/mg | 49.6 nM |  |
| Cc1cnc(Nc2cnn(C)c2)nc1-c1ccc(C(=O)NCC2(C#N)CC2)cc1 [Example 12, N-((1-Cyanocyclopropyl)methyl)-4-(5-methyl-2-((1-methyl-1H-pyrazol-4-yl)amino)pyrimidin-4-yl)benzamide] | 624 ng·h/mL | 0.98 L/kg | 27.1 mL/min/kg | 26.4 min |  | 95.5 nM | 3.2 nM | 37.5 nM | 132 µL/min/mg | 4.6 µL/min/mg |  |  |
| Cc1cnc(Nc2cnn(C3CC3)c2)nc1-c1ccc(C(=O)NCC#N)cc1 [Example 25, N-(Cyanomethyl)-4-(2-((1-cyclopropyl-1H-pyrazol-4-yl)amino)-5-methylpyrimidin-4-yl)benzamide] | 607 ng·h/mL | 0.6 L/kg | 29.8 mL/min/kg | 12 min | 47.5 nM | 20.9 nM | 0.69 nM | 11.2 nM | 263 µL/min/mg | 5.19 µL/min/mg |  | 1.34 nM |

The next compounds have a lower IC50 (JAK2; [5]) than those just listed; values first:

| AUC [1] | Vd [1] | clearance [1] | half-life [1] | IC50 (JAK2V617F) | IC50 (JAK2; [4]) | IC50 (JAK2; [5]) | IC50 (JAK1; [6]) | microsomal CLint at 1 μM [2] | microsomal CLint at 1 μM [3] | IC50 (TYK2) | IC50 (JAK1; IC50 JAK1 (10 nM) (Km ATP), JAK1 10 nM, Km ATP) | SMILES |
| --- | --- | --- | --- | --- | --- | --- | --- | --- | --- | --- | --- | --- |
| 1060 ng·h/mL | 0.6 L/kg | 15.8 mL/min/kg | 30 min | 31.1 nM | 1.03 nM | 0.33 nM | 14.1 nM | 17.1 µL/min/mg | 9.3 µL/min/mg |  |  | Cc1cnc(Nc2cnn(C3CCOCC3)c2)nc1-c1ccc(C(=O)NCC#N)cc1 [Example 26, N-(Cyanomethyl)-4-(5-methyl-2-((1-(tetrahydro-2H-pyran-4-yl)-1H-pyrazol-4-yl)amino)pyrimidin-4-yl)benzamide] |
| 1970 ng·h/mL | 0.43 L/kg | 8.4 mL/min/kg | 37.8 min | 2.53 nM | < 0.25 nM | < 0.25 nM | 13.8 nM | 53.6 µL/min/mg | 52.8 µL/min/mg |  |  | Cc1cnc(Nc2cnn(C3CCN(C(=O)C4CC4)CC3)c2)nc1-c1ccc(C(=O)NCC#N)cc1 [Example 24, N-(Cyanomethyl)-4-(2-((1-(1-(cyclopropanecarbonyl)piperidin-4-yl)-1H-pyrazol-4-yl)amino)-5-methylpyrimidin-4-yl)benzamide] |
